Experiments:
Format in all cases: cell-based, Acinetobacter baumannii
A. baumannii isolates [1] = assay: Time kill study (Example 4); details: for Time to kill 99.9%: alone
Procedure: A total of 12 isolates were tested (three per sub-group either susceptible, meropenem-resistant, amikacin-resistant or colistin-resistant). Two combinations were tested per isolate. Time-kill kinetics were performed by testing compound (I) and an additional antibacterial agent (amikacin, colistin and meropenem) individually at 1× and 4× the corresponding MIC of each antibacterial agent. […] Samples were taken at 0, 2, 4, 8 and 24 hours in order to determine colony forming units (CFU/mL).
Time-kill studies were carried out as described in General Procedures using combinations of compound (I) with amikacin, meropenem and colistin, respectively.

A. baumannii isolates [2] = assay: Checkerboard testing (compound (I)/antibacterial agent interaction, FIC index)
Procedure: Checkerboard interaction studies were performed using 5 isolates from each of the sub-groups and time kill studies were performed using 3 isolates from each sub-group.
Checkerboards (20 isolates, 5 per sub-group) were prepared so as to contain multiple concentrations of compound (I) with different additional antibacterial agents (amikacin, gentamicin, colistin, meropenem and tobramycin) as follows:
Serial two-fold dilutions of the antimicrobial agents alone or in combination in wells of 96 well microtiter plates were inoculated with the appropriate inoculum so that each well contained approximately 4-5×10^4 CFU/ml. Plates were incubated at 35° C. for 16-20 hours. Combination concentrations were tested between 0.25×MIC and 2×MIC. Growth and sterility controls were also included in each plate.
Synergy, indifference and antagonism were calculated based upon the use of the fractional inhibitory concentration (FIC) indices as described by Pillai, Moellering & Eliopoulos (2005) whereby:
Synergism=FIC index of ≦0.5 Indifference=FIC index >1 but ≦4 Additivity >0.5 to 1 Antagonism=FIC index of >4
Checkerboard studies were carried out as described in General Procedures using twenty different A. baumannii isolates with 5 per sub-group of: susceptible, amikacin-resistant, colistin-resistant and meropenem-resistant.

[3] = test system: A. baumannii CIP 5377, CIP 7034, AYE, SAN, RCH; assay: Antimicrobial susceptibility testing (MIC, broth microdilution, EUCAST; Example 5)
Excerpt: A. baumannii CIP 5377 (ATCC® 17978): low cephalosporinase producing strain, susceptible to meropenem and amikacin, isolated in an infected patient
A. baumannii CIP 7034: low cephalosporinase producing strain, susceptible to meropenem and amikacin A. baumannii AYE ATCC® BAA1710™: extended spectrum beta-lactamase producing strain susceptible to meropenem and resistant to amikacin
A. baumannii SAN-94040 (SAN): cephalosporinase-overproducing strain, susceptible to meropenem and intermediate to amikacin and resistant to fluoroquinolones, isolated from blood cultures of an intensive care patient with nosocomial pneumonia from North Africa (Algeria).
A. baumannii RCH-69: cephalosporinase producing strain; low susceptibility to imipenem and resistant to amikacin.

A. baumannii isolates [4] = assay: Individual antimicrobial susceptibility testing (MIC, broth microdilution, CLSI)
Procedure: In the antimicrobial susceptibility testing 77 isolates of A. baumannii (from 2010) in the following sub-groups were tested: • 22 isolates generally susceptible to antimicrobial agents (“Sus”) • 20 carbapenem-resistant isolates (e.g. “MPM-R”) • 20 aminoglycoside-resistant isolates (e.g. “AMK-R”) • 15 colistin-resistant isolates. (e.g. “COL-R”)
Minimum inhibitory concentration (MIC) endpoints were determined by broth microdilution according to CLSI guidelines (CLSI, M7-A8 & M100-S22, 2012). Panels were prepared at IHMA using cation-adjusted Mueller-Hinton broth. Colonies were taken directly from a second-pass culture plate and prepared to a suspension equivalent of the 0.5 McFarland standard using normal saline.
Testing was carried out as described in the General Procedures to determine minimum inhibitory concentration (MIC) end points for compound (I), amikacin, colistin, gentamicin, meropenem and tobramycin, for 77 A. baumannii isolates. Under the “MIC (μg/ml)” heading, the first column (Range) indicates the MIC end points for the particular number (N) of isolates tested, the second column (50%) provides an estimate of the concentration that inhibits 50% (MIC50) of bacterial isolates tested, and the third column (90%) provides an estimate of the concentration that inhibits 90% of the bacterial isolates tested.

[5] = Amikacin-resistant isolates, N=20
[6] = Colistin-resistant isolates, N=15
[7] = Meropenem-resistant isolates, N=20

colistin
Time to kill 99.9% (A. baumannii isolates [1]; AMK-R-1, 1xMIC): 1.4 h
Time to kill 99.9% (A. baumannii isolates [1]; AMK-R-1, 4xMIC): 1.3 h
Time to kill 99.9% (A. baumannii isolates [1]; AMK-R-2, 1xMIC): 2.3 h
Time to kill 99.9% (A. baumannii isolates [1]; AMK-R-2, 4xMIC): 1.8 h
Time to kill 99.9% (A. baumannii isolates [1]; AMK-R-3, 1xMIC): >24 h^
Time to kill 99.9% (A. baumannii isolates [1]; AMK-R-3, 4xMIC): 2.9 h
Time to kill 99.9% (A. baumannii isolates [1]; COL-R-1, 1xMIC): 2.8 h
Time to kill 99.9% (A. baumannii isolates [1]; COL-R-1, 4xMIC): 2.3 h
Time to kill 99.9% (A. baumannii isolates [1]; COL-R-2, 1xMIC): >24 h^
Time to kill 99.9% (A. baumannii isolates [1]; COL-R-2, 4xMIC): >24 h
Time to kill 99.9% (A. baumannii isolates [1]; COL-R-3, 1xMIC): 2.7 h
Time to kill 99.9% (A. baumannii isolates [1]; COL-R-3, 4xMIC): 2.1 h
Time to kill 99.9% (A. baumannii isolates [1]; MPM-R-1 (second line, Table 8 r14), 1xMIC): 1.3 h
Time to kill 99.9% (A. baumannii isolates [1]; MPM-R-1 (second line, Table 8 r14), 4xMIC): 1.6 h
Time to kill 99.9% (A. baumannii isolates [1]; MPM-R-1, 1xMIC): 5.0 h
Time to kill 99.9% (A. baumannii isolates [1]; MPM-R-1, 4xMIC): 8.1 h
Time to kill 99.9% (A. baumannii isolates [1]; MPM-R-3, 1xMIC): 2 h
Time to kill 99.9% (A. baumannii isolates [1]; MPM-R-3, 4xMIC): 5.1 h
Time to kill 99.9% (A. baumannii isolates [1]; Sus-1, 1xMIC): >24 h^
Time to kill 99.9% (A. baumannii isolates [1]; Sus-1, 4xMIC): >24 h
Time to kill 99.9% (A. baumannii isolates [1]; Sus-2, 4xMIC): 6.3 h
Time to kill 99.9% (A. baumannii isolates [1]; Sus-3, 1xMIC): 1.6 h
Time to kill 99.9% (A. baumannii isolates [1]; Sus-3, 4xMIC): 3.6 h
effect in time-kill studies when tested alone (A. baumannii isolates [1]; alone at 1× or 4×MIC): generally bactericidal
MIC (A. baumannii isolates [1]; isolate AMK-R-1): 0.5 µg/mL
MIC (A. baumannii isolates [1]; isolate AMK-R-2): 0.5 µg/mL
MIC (A. baumannii isolates [1]; isolate AMK-R-3): 0.25 µg/mL
MIC (A. baumannii isolates [1]; isolate COL-R-1): 8 µg/mL
MIC (A. baumannii isolates [1]; isolate COL-R-2): 4 µg/mL
MIC (A. baumannii isolates [1]; isolate COL-R-3): 16 µg/mL
MIC (A. baumannii isolates [1]; isolate MPM-R-1): 0.25 µg/mL
MIC (A. baumannii isolates [1]; isolate MPM-R-3): 1 µg/mL
MIC (A. baumannii isolates [1]; isolate Sus-1): 1 µg/mL
MIC (A. baumannii isolates [1]; isolate Sus-2): 0.5 µg/mL
MIC (A. baumannii isolates [1]; isolate Sus-3): 0.25 µg/mL
MIC (A. baumannii isolates [1]; isolate printed MPM-R-1 (second such line of Table 8, r14)): 1 µg/mL
MIC (A. baumannii isolates [2]; A. baumannii 441142, colistin-resistant): 8 µg/mL
MIC (A. baumannii isolates [2]; A. baumannii 441160, colistin-resistant): 4 µg/mL
MIC (A. baumannii isolates [2]; A. baumannii 463996, colistin-resistant): 4 µg/mL
MIC (A. baumannii isolates [2]; A. baumannii 466936, colistin-resistant): 8 µg/mL
MIC (A. baumannii isolates [2]; A. baumannii 517303, colistin-resistant): >1024 µg/mL
MIC (A. baumannii isolates [2]; A. baumannii 618649, meropenem-resistant): 0.5 µg/mL
MIC (A. baumannii isolates [2]; A. baumannii 625917, meropenem-resistant): 0.5 µg/mL
MIC (A. baumannii isolates [2]; A. baumannii 628760, susceptible): 0.5 µg/mL
MIC (A. baumannii isolates [2]; A. baumannii 637723, amikacin-resistant): 0.5 µg/mL
MIC (A. baumannii isolates [2]; A. baumannii 638115, amikacin-resistant): 0.5 µg/mL
MIC (A. baumannii isolates [2]; A. baumannii 650216, meropenem-resistant): 0.25 µg/mL
MIC (A. baumannii isolates [2]; A. baumannii 655932, amikacin-resistant): 0.5 µg/mL
MIC (A. baumannii isolates [2]; A. baumannii 661954, amikacin-resistant): 1 µg/mL
MIC (A. baumannii isolates [2]; A. baumannii 667848, meropenem-resistant): 0.5 µg/mL
MIC (A. baumannii isolates [2]; A. baumannii 668116, susceptible): 1 µg/mL
MIC (A. baumannii isolates [2]; A. baumannii 668239, amikacin-resistant): 0.5 µg/mL
MIC (A. baumannii isolates [2]; A. baumannii 670348, susceptible): 0.5 µg/mL
MIC (A. baumannii isolates [2]; A. baumannii 671050, meropenem-resistant): 0.5 µg/mL
MIC (A. baumannii isolates [2]; A. baumannii 672190, susceptible): 0.5 µg/mL
MIC (A. baumannii isolates [2]; A. baumannii 674340, susceptible): 0.5 µg/mL
MIC ([3]; A. baumannii AYE): 1 µg/mL
MIC ([3]; A. baumannii CIP 5377): 0.5 µg/mL
MIC ([3]; A. baumannii CIP 7034): 0.5 µg/mL
MIC ([3]; A. baumannii RCH): 0.5 µg/mL
MIC ([3]; A. baumannii SAN): 1 µg/mL
mode MIC (A. baumannii isolates [4]; 77 isolates, FIG. 1 and 2): lowest mode MIC
MIC 50% (A. baumannii isolates [4]; All isolates, N=77): 0.5 µg/mL
MIC 90% (A. baumannii isolates [4]; All isolates, N=77): 8 µg/mL
MIC 50% (A. baumannii isolates [4]; [5]): 0.5 µg/mL
MIC 90% (A. baumannii isolates [4]; [5]): 1 µg/mL
MIC Range (A. baumannii isolates [4]; [5]): 0.25 to 2 µg/mL
MIC 50% (A. baumannii isolates [4]; [6]): 8 µg/mL
MIC 90% (A. baumannii isolates [4]; [6]): >32 µg/mL
MIC 50% (A. baumannii isolates [4]; [7]): 0.5 µg/mL
MIC 90% (A. baumannii isolates [4]; [7]): 1 µg/mL
MIC Range (A. baumannii isolates [4]; [7]): 0.25 to 1 µg/mL
MIC 50% (A. baumannii isolates [4]; Susceptible isolates, N=22): 0.5 µg/mL
MIC 90% (A. baumannii isolates [4]; Susceptible isolates, N=22): 0.5 µg/mL
MIC Range (A. baumannii isolates [4]; Susceptible isolates, N=22): 0.06 to 1 µg/mL
